Laboratory results: patent US5705499A, “8-arylalkyl- and 8-arylheteroalkyl-5,11-dihydro-6H-dipyrido[3,2-B:2',3'-e][1]diazepines and their use in the treatment of HIV-1 infection” (Boehringer Ingelheim Pharmaceuticals, Inc., priority 1996, dated 1998)
Like-named read-outs stand apart in the source and are kept apart here.

Key:
[1] = tested on: HTLV-IIIB strain of HIV-1 (in C8166-45 cells); assay: Syncytia (human T-cell culture) Assay; format: cell-based
Method: Formation of syncytia is a feature of in vitro cultures of CD4+ T-cells infected with HIV-1. In this assay (1), T-cells are treated with a putative replication inhibiting compound and then infected with HIV-1. After incubation, the culture is checked for the formation of syncytia. The absence or reduction in the number of syncytia is used as a measure of the test compound's ability to inhibit HIV replication.
The target cells, designated C8166-45, are a fusion of umbilical blood lymphocytes and T-cells from leukemia-lymphoma patients and are established at an initial density of 5×10^4 per 90 μl in RPMI 1640 (+10% fetal bovine serum) culture medium in 96 well flat bottom plates. A selected amount of test compound, dissolved in DMSO, is included. 50 TCID50 's (the dose that results in induced effect in 50% of test cultures) of the HTLV-IIIB strain of HIV-1 (3) are inoculated into each culture. Control cultures receive compound or virus only.
The cultures are incubated for 72 hours (4), at 37° C. with 5% carbon dioxide, and then visually examined for the frequency and distribution of virus-induced giant cell syncytia. The percent inhibition by the test compound is determined by comparison with control values.

C8166-45 cell line = assay: MTT Assay (cytotoxicity); format: cell-based, human; conditions: C8166-45 cells, five days
[2] = Human immunodeficiency virus 1, T-cell, C8166-45 cells, HTLV-IIIB strain, 72 hours, read-out: Syncytia Assay IC50

IC50 [1, 2] [µM] | Compound | MTT Assay CC30 (C8166-45 cell line) [µM] | IC50 ([1]; Human immunodeficiency virus 1, IIIB, T-cell, 72 h, read-out: Syncytia Assay IC50 (μM)) [µM]
0.03 | CCN1c2ncc(CCc3ccccc3)cc2C(=O)N(C)c2cccnc21 [Example 42, 5,11-Dihydro-11-ethyl-5methyl-8-(2-phenylethyl)-6H-dipyrido[3,2-b:2',3'-e][1,4]diazepin-6-one] |  | 
0.01 | CCN1c2ncc(CCc3ccccc3)cc2C(=O)N(C)c2ccc(Cl)nc21 [Example 45, 2Chloro-5,11-dihydro-11-ethyl-5-methyl-8-(2-phenylethyl)-6H-dipyrido[3,2-b:2',3'-e][1,4]diazepin-6-one] | > 60 | 
0.03 | CCN1c2ncc(CCOc3cc[n+]([O-])cc3)cc2C(=O)N(C)c2ccc(Cl)nc21 [Example 96, 2-chloro-5,11-dihydro-11-ethyl-5-methyl-8-[2-(N-oxo-pyrid-4-yloxy)ethyl]-6H-dipyrido[3,2-b:2',3'-e[]1,4]diazepin-6-one] | > 256 | 
 | CCN1c2ncc(COc3cccc(N)c3)cc2C(=O)N(C)c2ccc(Cl)nc21 [Example 99, 8-(3-aminophenyloxy)methyl-2-chloro-5,11-dihydro-11-ethyl-5-methyl-6H-dipyrido[3,2-b:2',3'-e][1,4]diazepin-6-one] |  | 0.02
0.05 | CCN1c2ncc(COc3ccccc3)cc2C(=O)N(C)c2ccc(Cl)nc21 [Example 100, 2-chloro-5,11-dihydro-11-ethyl-5-methyl-8-(phenyloxy)methyl-6H-dipyrido[3,2-b:2',3'-e][1,4]diazepin-6-one] | > 60 | 
 | CCN1c2ncc(COc3ccc(O)cc3)cc2C(=O)N(C)c2ccc(Cl)nc21 [Example 105, 2-chloro-5,11-dihydro-11-ethyl-8-(4-hydroxyphenyloxy)methyl-5-methyl-6H-dipyrido[3,2-b:2',3'-e][1,4]diazepin-6-one] | 40 | 
 | CCN1c2ncc(COc3ccccc3O)cc2C(=O)N(C)c2ccc(Cl)nc21 [Example 106, 2-chloro-5,11-dihydro-11-ethyl-8-(2-hydroxyphenyloxy)methyl-5-methyl-6H-dipyrido[3,2-b:2',3'-e][1,4]diazepin-6-one] | > 60 | 
 | CCN1c2ncc(COc3cccnc3)cc2C(=O)N(C)c2ccc(Cl)nc21 [Example 107, 2-chloro-5,11-dihydro-11-ethyl-5-methyl-8-(3-pyridyloxy)methyl-6H-dipyrido[3,2-b:2',3'-e][1,4]diazepin-6-one] | > 256 | 
 | CCN1c2ncc(COc3cccc(OC)c3)cc2C(=O)N(C)c2ccc(Cl)nc21 [Example 108, 2-chloro-5,11-dihydro-11-ethyl-8-(3-methoxyphenyloxy)methyl-5-methyl-6H-dipyrido[3,2-b:2',3'-e][1,4]diazepin-6-one] | > 120 | 
 | CCN1c2ncc(COc3ccc(C(=O)OC)cc3)cc2C(=O)N(C)c2ccc(Cl)nc21 [Example 109, 2-chloro-5,11-dihydro-11-ethyl-8-(4-(methoxycarbonyl)phenyloxy)methyl-5-methyl-6H-dipyrido[3,2-b :2',3'-e][1,4]diazepin-6-one] | > 60 | 
 | CCN1c2ncc(COc3ccccc3C(=O)OC)cc2C(=O)N(C)c2ccc(Cl)nc21 [Example 110, 2-chloro-5,11-dihydro-11-ethyl-8-(2-(methyoxycarbonyl)phenyloxy)methyl-5-methyl-6H-dipyrido[3,2-b:2',3'-e][1,4]diazepin-6-one] | > 250 | 
 | CCN1c2ncc(COc3cccc(C(=O)OC)c3)cc2C(=O)N(C)c2ccc(Cl)nc21 [Example 111] | > 60 | 
 | CCN1c2ncc(COc3cccc(C(=O)O)c3)cc2C(=O)N(C)c2ccc(Cl)nc21 [Example 112, 2-chloro-5,11-dihydro-11-ethyl-8-(3-(carboxy)phenyloxy)methyl-5-methyl-6H-dipyrido[3,2-b:2',3'-e][1,4]diazepin-6-one] | 250 | 
 | CCN1c2ncc(COc3cccc(C(N)=O)c3)cc2C(=O)N(C)c2ccc(Cl)nc21 [Example 113, 8-(3-(aminocarbonyl)phenyloxy)methyl-2-chloro-5,11-dihydro-11-ethyl-5-methyl-6H-dipyrido[3,2-b:2',3'-e][1,4]diazepin-6-one] | 130 | 
 | CCN1c2ncc(COc3cccc4[nH]ccc34)cc2C(=O)N(C)c2ccc(Cl)nc21 [Example 114, 2-chloro-5,11-dihydro-11-ethyl-8-(4-indolyloxy)methyl-5-methyl-6H-dipyrido[3,2-b:2',3'-e][1,4]diazepin-6-one] | 30 | 
 | CCN1c2ncc(CN(C)c3ccccc3)cc2C(=O)N(C)c2ccc(Cl)nc21 [Example 116, 2-chloro-5,11-dihydro-11-ethyl-5-methyl-8-(N-methylphenylamino)methyl-6H-dipyrido[3,2-b:2',3'-e][1,4]diazepin-6-one] | > 60 | 
0.005 | CCN1c2ncc(CSc3ccccc3)cc2C(=O)N(C)c2ccc(Cl)nc21 [Example 117, 2-chloro-5,11-dihydro-11-ethyl-5-methyl-8-(phenylthio)methyl-6H-dipyrido[3,2-b:2',3'-e][1,4]diazepin-6-one] | 60 | 
 | CCN1c2ncc(CS(=O)(=O)c3ccccc3)cc2C(=O)N(C)c2ccc(Cl)nc21 [Example 118, 2-chloro-5,11-dihydro-11-ethyl-5-methyl-8-(phenylsulfonyl)methyl-6H-dipyrido[3,2-b:2',3'e][1,4]diazepin-6-one] | 45 | 
 | CCN1c2ncc(CSc3ncccn3)cc2C(=O)N(C)c2ccc(Cl)nc21 [Example 121, 2-chloro-5,11-dihydro-11-ethyl-5-methyl-8-(pyrimidinyl-2-thio)methyl-6H-dipyrido[3,2-b:2',3'-e][1,4]diazepin-6-one] | 50 | 
 | CCN1c2ncc(CSc3[nH]cnc4nncc3-4)cc2C(=O)N(C)c2ccc(Cl)nc21 [Example 122, 2-chloro-5,11-dihydro-11-ethyl-5-methyl-8-(1H-pyrazolo[3,4-d]pyrimidine-4-ylthio)methyl-6H-dipyrido[3,2-b:2',3'-e][1,4]diazepin-6-one] | 25 | 
0.006 | CCN1c2ncc(COc3ccncc3)cc2C(=O)N(C)c2ccc(Cl)nc21 [Example 124, 2-Chloro-5,11-dihydro-11-ethyl-5-methyl-8-(pyrid-4-yloxy)methyl-6H-dipyrido[3,2-b:2',3'-e][1,4]diazepin-6-one] | > 120 | 
 | CCN1c2ncc(COc3ccncc3)cc2C(=O)N(C)c2ccc(F)nc21 [Example 125, 5,11-dihydro-11-ethyl-2-fluoro-5-methyl-8-(pyrid-4-yloxy)methyl-6H-dipyrido[3,2-b:2',3'-e][1,4]diazepin-6-one] | 160 | 
 | CCN1c2ncc(COc3ccnc(C(F)(F)F)c3)cc2C(=O)N(C)c2ccc(Cl)nc21 [Example 126, 2-chloro-5,11-dihydro-11-ethyl-5-methyl-8-(2-trifluoromethylpyrid-4-yloxy)methyl-6H-dipyrido[3,2-b;2',3'-e][1,4]diazepin-6-one] | 64 | 
 | CCN1c2ncc(CCOc3ccncc3)cc2C(=O)N(C)c2cccnc21 [Example 128, 5,11-dihydro-11-ethyl-5-methyl-8-(pyrid-4-yloxy)ethyl-6H-dipyrido[3,2-b:2',3'-e][1,4]diazepin-6-one] | > 256 | 
